From patent US20240279236A1, “COMPOUNDS AND METHODS OF TREATING TUBERCULOSIS” (Fimbrion Therapeutics, Inc., priority 2021, published 2024)

These molecules were tested on WT Mtb Erdman strain (assay: Microplate Alamar Blue Assay (MABA), Mtb growth inhibition). Details: Mycobacterium tuberculosis, ERDMAN, 168 h, Middlebrook 7H9 media, 7 days at 37° C. in 5% CO2.
Type: cell-based, Mycobacterium tuberculosis

| SMILES | IC50 |
| --- | --- |
| Cc1cc2c(NCCCc3cccc(C#N)c3)nc(C(F)(F)F)nc2s1 [Example 243, 3-(3-((6-methyl-2-(trifluoromethyl)thieno[2,3-d]pyrimidin-4-yl)amino)propyl) benzonitrile] | > 8000 nM |
| Cc1cc2c(N[C@@H]3C[C@H]3c3ccc(F)c(F)c3)nc(Cl)nc2s1 [Example 222, 2-chloro-N-((1R,2S)-2-(3,4-difluorophenyl)cyclopropyl)-6-methylthieno[2,3-d]pyrimidin-4-amine] | 1500 nM |
| Cc1cc2c(NCCCc3ccccc3)nc(CC3CC3)nc2s1 [Example 97, 2-(cyclopropyLMethyl)-6-methyl-N-(3. phenylpropyl)thieno [2,3-d]pyrimidin-4-amine] | 360 nM |
| CCc1nc(NCCc2ccc(OC)cc2)c2cc(C)sc2n1 [Example 15, 2-ethyl-N-(4-methoxyphenethyl)-6-methylthieno[2,3-d]pyrimidin-4-amine] | 2100 nM |
| Cc1cc2c(NCCCc3ccc(S(C)(=O)=O)cc3)nc(C(F)(F)F)nc2s1 [Example 242, 6-methyl-N-(3-(4-(methylsulfonyl)phenyl)propyl)-2-(trifluoromethyl) thieno[2,3-d] pyrimidin-4-amine] | > 10000 nM |
| C#Cc1ccc(-c2ccc(CCCNc3nc(-c4ccoc4)nc4sc(C)cc34)cc2)cc1 [Example 333, N-(3-(4′-ethynyl-[1,1′-biphenyl]-4-yl)propyl)-2-(furan-3-yl)-6-methylthieno[2,3-d]pyrimidin-4-amine] | 12 nM |
| Fc1ccc([C@@H]2C[C@H]2Nc2nc(-c3ccccn3)nc3sc(C(F)(F)F)cc23)cc1F [Example 45, N-((1R,2S)-2-(3,4-difluorophenyl)cyclopropyl)-2-(pyridin-2-yl)-6-(trifluoromethyl)thieno [2,3-d]pyrimidin-4-amine] | 2800 nM |
| Cc1cc2c(NCCCc3ccc(-n4cccc4)cc3)nc(-c3ccoc3)nc2s1 [Example 604, 2-(furan-3-yl)-6-methyl-N-(3-[4-(1H-pyrrol-1-yl)phenyl]propyl)thieno[2,3-d]pyrimidin-4-amine] | 28 nM |
| Cc1cc2c(N[C@@H]3C[C@H]3c3ccc(F)c(F)c3)nc(C#N)nc2s1 [Example 227, 4-(((1R,2S)-2-(3,4-difluorophenyl)cyclopropyl)amino)-6-methylthieno[2,3-d]pyrimidine-2-carbonitrile] | 3300 nM |
| Cc1cc2c(NCCCc3cccnc3)nc(C(F)(F)F)nc2s1 [Example 158, 6-methyl-N-(3-(pyridin-3-yl)propyl)-2-(trifluoromethyl) thieno[2,3-d] pyrimidin-4-amine] | > 6900 nM |
| Clc1nc(NCCCc2ccccc2)c2ccsc2n1 [Example 218, 2-chloro-N-(3-phenylpropyl)thieno [2,3-d]pyrimidin-4-amine] | 6400 nM |
| Cc1cc2c(NCCCc3ccccc3F)nc(C(F)(F)F)nc2s1 [Example 188, N-(3-(2-fluorophenyl)propyl)-6-methyl-2-(trifluoromethyl) thieno[2,3-d] pyrimidin-4-amine] | 5100 nM |
| Cc1cc2c(NCCCc3ccccc3)nc(-c3ccncn3)nc2s1 [Example 78, 6-methyl-N-(3-phenylpropyl)-2-(pyrimidin-4-yl)thieno[2,3-d]pyrimidin-4-amine] | 160 nM |
| Cc1cc2c(NCCCc3ccc(N(C)C)cc3)nc(C(F)(F)F)nc2s1 [Example 178, N-(3-(4-(dimethylamino)phenyl)propyl)-6-methyl-2-(trifluoromethyl) thieno[2,3-d] pyrimidin-4-amine] | 1300 nM |
| Cc1cc2c(NCCCc3ccc(-c4ccc(OC(F)(F)F)cc4)cc3F)nc(-c3ccoc3)nc2s1 [Example 313, N-(3-(3-fluoro-(trifluoromethoxy)-[1,1′-biphenyl]-4-′-yl)propyl)-2-(furan-3-yl)-6-methylthieno[2,3-d]pyrimidin-4-amine] | 50 nM |
| Cc1cc2c(NCCCc3ccccc3)nc(N3CCC[C@H]3C)nc2s1 [Example 514, (R)-6-methyl-2-(2-methylpyrrolidin-1-yl)-N-(3-phenylpropyl)thieno[2,3-d]pyrimidin-4-amine] | 7000 nM |
| CCCc1nc(NCCCc2ccccc2)c2cc(C)sc2n1 [Example 54, 6-methyl-N-(3-phenylpropyl)-2-propylthieno[2,3-d]pyrimidin-4-amine] | 310 nM |
| Cc1cc2c(N[C@@H]3C[C@H]3c3ccc(F)c(F)c3)nc(C(N)=O)nc2s1 [Example 107, 4-(((1R,2S)-2-(3,4-difluorophenyl)cyclopropyl)amino)-6-methylthieno[2,3-d]pyrimidine-2-carboxamide] | > 6400 nM |
| CSc1nc(NCCCc2ccc(-c3ccc(C4CC4)cc3)cc2)c2cc(C)sc2n1 [Example 430, N-(3-(4′-cyclopropyl-[1,1′-biphenyl]-4-yl)propyl)-6-methyl-2-(methylthio)thieno[2,3-d]pyrimidin-4-amine] | 18 nM |
| COC(=O)c1nc(NCCCc2ccccc2)c2cc(C)sc2n1 [Example 98, methyl 6-methyl-4-((3-phenylpropyl)amino) thieno[2,3-d]pyrimidine-2-carboxylate] | > 10000 nM |
| COc1ccc(CCCNc2nc(Cl)nc3sccc23)cc1 [Example 219, 2-chloro-N-(3-(4-methoxyphenyl)propyl)thieno[2,3-d]pyrimidin-4-amine] | > 7700 nM |

| SMILES | IC50 |
| --- | --- |
| Cc1cc2c(NCCCc3ccccc3)nc(-c3ccc(Cl)cc3)nc2s1 [Example 90, 2-(4-chlorophenyl)-6-methyl-N-(3-phenylpropyl)thieno [2,3-d]pyrimidin-4-amine] | 2000 nM |
| Cc1cc2c(NCCCc3ccc(-c4ccc(OC(F)(F)F)cc4)cc3)nc(C3CC3)nc2s1 [Example 452] | 76 nM |
| Cc1cc2c(NCCCc3ccc(OC(F)(F)F)cc3)nc(N3CCCC3)nc2s1 [Example 506, 6-methyl-2-(pyrrolidin-1-yl)-N-(3-(4-(trifluoromethoxy)phenyl)propyl)thieno[2,3-d]pyrimidin-4-amine] | 120 nM |
| Cc1cc2c(NCCCc3ccccc3)nc(OC(F)F)nc2s1 [Example 580, 2-(difluoromethoxy)-6-methyl-N-(3-phenylpropyl)thieno[2,3-d]pyrimidin-4-amine] | > 10000 nM |
| CCc1nc(NCCCc2ccc(-c3cccnc3)cc2)c2cc(C)sc2n1 [Example 275, 2-ethyl-6-methyl-N-(3-(4-(pyridin-3-yl)phenyl)propyl) thieno[2,3-d]pyrimidin-4-amine] | 180 nM |
| CN(C)c1nc(NCCCc2ccc(-c3ccc(OC(F)(F)F)cc3)cc2)c2ncsc2n1 [Example 536, N5,N5-dimethyl-N7-(3-(4′-(trifluoromethoxy)-[1,1′-biphenyl]-4-yl)propyl)thiazolo[5,4-d]pyrimidine-5,7-diamine] | 88 nM |
| Cc1cc2c(NCCCc3ccc(OC(F)(F)F)cc3)nc(C(=O)NC3CC3)nc2s1 [Example 565, N-cyclopropyl-6-methyl-4-((3-(4-(trifluoromethoxy)phenyl)propyl)amino)thieno[2,3-d]pyrimidine-2-carboxamide] | 4300 nM |
| COc1ccccc1CCCNc1nc(C(F)(F)F)nc2sc(C)cc12 [Example 161, N-(3-(2-methoxyphenyl)propyl)-6-methyl-2-(trifluoromethyl) thieno[2,3-d]pyrimidin-4-amine] | 4400 nM |
| CCc1nc(NCCc2cccc([N+](=O)[O-])c2)c2cc(C)sc2n1 [Example 39, 2-ethyl-6-methyl-N-(3-nitrophenethyl)thieno [2,3-d]pyrimidin-4-amine] | > 8800 nM |
| Cc1cc2c(NCCCc3ccc(C(F)(F)F)cc3)nc(C(F)(F)F)nc2s1 [Example 48, 6-methyl-2-(trifluoromethyl)-N-(3-(4-(trifluoromethyl)phenyl)propyl)thieno[2,3-d] pyrimidin-4-amine] | 2600 nM |
| Cc1cc2c(NC/C=C/c3ccccc3)nc(Cl)nc2s1 [Example 225, 2-chloro-N-cinnamyl-6-methylthieno[2,3-d]pyrimidin-4-amine] | 390 nM |
| Cc1nc2c(NCCCc3ccc(-c4cnc(F)cn4)cc3)nc(-c3ncon3)nc2s1 [Example 457, N-(3-(4-(5-fluoropyrazin-2-yl)phenyl)propyl)-2-methyl-5-(1,2,4-oxadiazol-3-yl)thiazolo[5,4-d]pyrimidin-7-amine] | > 1000 nM |
| Cc1cc2c(NCCCc3ccc(-c4ccc(F)cc4)cc3)nc(-c3ccoc3)nc2s1 [Example 322, N-(3-(4′-fluoro-[1,1′-biphenyl]-4-yl)propyl)-2-(furan-3-yl)-6-methylthieno[2,3-d]pyrimidin-4-amine] | 6 nM |
| Cc1nc(NCCCc2ccccc2)c2nc(Cl)sc2n1 [Example 583, 2-chloro-5-methyl-N-(3-phenylpropyl)thiazolo[5,4-d]pyrimidin-7-amine] | 5800 nM |
| CCc1nc(NCCCc2ccc(-c3ccnnc3)cc2)c2cc(C)sc2n1 [Example 375, 2-ethyl-6-methyl-N-(3-(4-(pyridazin-4-yl)phenyl)propyl) thieno[2,3-d]pyrimidin-4-amine] | 860 nM |
| CSc1nc(NCCCc2ccc(-c3ccc(OC(F)(F)F)cc3)cc2)c2cc(C)sc2n1 [Example 289, 6-methyl-2-(methylthio)-N-(3-(4′-(trifluoromethoxy)-[1,1′-biphenyl]-4-yl)propyl)thieno [2,3-d]pyrimidin-4-amine] | 8 nM |
| Cc1cc2c(NCCCc3ccc(-c4ccc(N(C)C)cc4)cc3)nc(-c3ccoc3)nc2s1 [Example 325, N-(3-[4′-(dimethylamino)-[1,1′-biphenyl]-4-yl]propyl)-2-(furan-3-yl)-6-methylthieno[2,3-d]pyrimidin-4-amine] | 10 nM |
| C=C(C)c1nc(NCCCc2ccccc2)c2cc(C)sc2n1 [Example 582, 6-methyl-N-(3-phenylpropyl)-2-(prop-1-en-2-yl)thieno[2,3-d]pyrimidin-4-amine] | 170 nM |
| COc1ccccc1-c1nc(N[C@@H]2C[C@H]2c2ccc(F)c(F)c2)c2cc(C)sc2n1 [Example 496, N-((1R,2S)-2-(3,4-difluorophenyl)cyclopropyl)-2-(2-methoxyphenyl)-6-methylthieno[2,3-d]pyrimidin-4-amine] | > 10000 nM |
| Cc1cc2c(NCCCc3ccc(-c4ccc(Cl)cc4)cc3)nc(-c3ccoc3)nc2s1 [Example 434, N-(3-(4′-chloro-[1,1′-biphenyl]-4-yl)propyl)-2-(furan-3-yl)-6-methylthieno[2,3-d]pyrimidin-4-amine] | 10 nM |
